{"source": "paper PMC5218480", "about": "(PLoS ONE, 2017)", "tested_on": "MV-4-11 cells", "assay": "Gene expression microarray analysis (Affymetrix PrimeView) and GSEA", "format": "cell-based, human", "set-up": "RFU PODN (11730768_x_at) / Fold change /veh PODN (11730768_x_at) / RFU LINC00158 (11744669_a_at) / Fold change /veh LINC00158 (11744669_a_at) / RFU DUSP10 (11751237_a_at) / Fold change /veh DUSP10 (11751237_a_at) / RFU ID3 (11757404_x_at) / Fold change /veh ID3 (11757404_x_at) / RFU PLEKHG5 (11737974_s_at) / Fold change /veh PLEKHG5 (11737974_s_at) / RFU LRRC4B (11730491_at) / Fold change /veh LRRC4B (11730491_at) / RFU GIMAP4 (11747438_a_at) / Fold change /veh GIMAP4 (11747438_a_at) / RFU KRT8 (11758183_x_at) / Fold change /veh KRT8 (11758183_x_at) / RFU CNN1 (11734310_a_at) / Fold change /veh CNN1 (11734310_a_at) / RFU VPS37D (11726825_at) / Fold change /veh VPS37D (11726825_at) / RFU C10orf10 (11716522_x_at) / Fold change /veh C10orf10 (11716522_x_at) / RFU KIR2DL2 /// KIR2DL4 /// KIR2DL5A /// KIR2DL5B /// KIR2DS1 /// KIR2DS2 /// KIR2DS3 /// KIR2DS4 /// KIR3DL3 /// KIR3DL3 /// KIR3DS1 (11738374_at) / Fold change /veh KIR2DL2 /// KIR2DL4 /// KIR2DL5A /// KIR2DL5B /// KIR2DS1 /// KIR2DS2 /// KIR2DS3 /// KIR2DS4 /// KIR3DL3 /// KIR3DL3 /// KIR3DS1 (11738374_at) / RFU C1QL1 (11718748_at) / Fold change /veh C1QL1 (11718748_at) / RFU TMPRSS4 (11747572_a_at) / Fold change /veh TMPRSS4 (11747572_a_at) / RFU HAMP (11756126_x_at) / Fold change /veh HAMP (11756126_x_at) / RFU RNFT2 (11725882_a_at) / Fold change /veh RNFT2 (11725882_a_at) / RFU NR4A2 (11747474_a_at) / Fold change /veh NR4A2 (11747474_a_at) / RFU ABCC12 (11746883_a_at) / Fold change /veh ABCC12 (11746883_a_at) / RFU TMEM136 (11760407_x_at) / Fold change /veh TMEM136 (11760407_x_at) / RFU CLDN22 /// WWC2 (11732394_at) / Fold change /veh CLDN22 /// WWC2 (11732394_at) / RFU HLA-DPB1 (11760878_x_at) / Fold change /veh HLA-DPB1 (11760878_x_at) / RFU SPINT1 (11716480_a_at) / Fold change /veh SPINT1 (11716480_a_at) / RFU GAP43 (11754022_s_at) / Fold change /veh GAP43 (11754022_s_at) / RFU A4GNT (11735810_at) / Fold change /veh A4GNT (11735810_at) / RFU PRB3 (11715151_x_at) / Fold change /veh PRB3 (11715151_x_at) / RFU TUBB4B (11761932_at) / Fold change /veh TUBB4B (11761932_at) / RFU CAPN14 (11732068_a_at) / Fold change /veh CAPN14 (11732068_a_at) / RFU TMCC2 (11721928_a_at) / Fold change /veh TMCC2 (11721928_a_at) / RFU IRGQ (11745062_a_at) / Fold change /veh IRGQ (11745062_a_at) / RFU FAM174B (11720279_a_at) / Fold change /veh FAM174B (11720279_a_at) / RFU TMPRSS4 (11748680_a_at) / Fold change /veh TMPRSS4 (11748680_a_at) / RFU FAM212B (11763350_a_at) / Fold change /veh FAM212B (11763350_a_at) / RFU PLEKHG5 (11743358_a_at) / Fold change /veh PLEKHG5 (11743358_a_at) / RFU ZSCAN30 (11745921_a_at) / Fold change /veh ZSCAN30 (11745921_a_at) / RFU CMKLR1 (11741424_a_at) / Fold change /veh CMKLR1 (11741424_a_at) / RFU LOC101060620 /// MAPK8IP1 (11723275_at) / Fold change /veh LOC101060620 /// MAPK8IP1 (11723275_at) / RFU SPTSSB (11747773_x_at) / Fold change /veh SPTSSB (11747773_x_at) / RFU PRSS12 (11739890_at) / Fold change /veh PRSS12 (11739890_at) / RFU BIN1 (11741810_x_at) / Fold change /veh BIN1 (11741810_x_at) / RFU WNT11 (11732464_a_at) / Fold change /veh WNT11 (11732464_a_at) / RFU C10orf10 (11716521_a_at) / Fold change /veh C10orf10 (11716521_a_at) / RFU C5orf56 (11738089_at) / Fold change /veh C5orf56 (11738089_at) / RFU CYB561 (11721691_x_at) / Fold change /veh CYB561 (11721691_x_at) / RFU ANKRD19P (11752326_a_at) / Fold change /veh ANKRD19P (11752326_a_at) / RFU OR2T12 /// OR2T33 /// OR2T8 (11738714_s_at) / Fold change /veh OR2T12 /// OR2T33 /// OR2T8 (11738714_s_at) / RFU VCAN (11748164_a_at) / Fold change /veh VCAN (11748164_a_at) / RFU JSRP1 (11732532_at) / Fold change /veh JSRP1 (11732532_at) / RFU KRTAP10-11 (11738290_x_at) / Fold change /veh KRTAP10-11 (11738290_x_at) / RFU MYO3A (11730013_a_at) / Fold change /veh MYO3A (11730013_a_at) / RFU EBF3 (11725865_a_at) / Fold change /veh EBF3 (11725865_a_at) / RFU CAMK2N1 (11719241_x_at) / Fold change /veh CAMK2N1 (11719241_x_at) / RFU C5orf56 (11738088_a_at) / Fold change /veh C5orf56 (11738088_a_at) / RFU OLFML3 (11715873_a_at) / Fold change /veh OLFML3 (11715873_a_at) / RFU LOC100653217 /// NTM (11731650_a_at) / Fold change /veh LOC100653217 /// NTM (11731650_a_at) / RFU MAPK11 (11762145_a_at) / Fold change /veh MAPK11 (11762145_a_at) / RFU FIZ1 (11724087_x_at) / Fold change /veh FIZ1 (11724087_x_at) / RFU OASL (11726364_x_at) / Fold change /veh OASL (11726364_x_at) / RFU SOX15 (11748057_x_at) / Fold change /veh SOX15 (11748057_x_at) / RFU CD79A (11719716_a_at) / Fold change /veh CD79A (11719716_a_at) / RFU HIST1H1D (11736915_at) / Fold change /veh HIST1H1D (11736915_at) / RFU CASKIN2 (11723855_a_at) / Fold change /veh CASKIN2 (11723855_a_at) / RFU LOC730098 (11760151_x_at) / Fold change /veh LOC730098 (11760151_x_at) / RFU OR4N2 (11742367_at) / Fold change /veh OR4N2 (11742367_at) / RFU PRRT2 (11749266_a_at) / Fold change /veh PRRT2 (11749266_a_at) / RFU SNX32 (11753110_a_at) / Fold change /veh SNX32 (11753110_a_at) / RFU CDHR5 (11726645_a_at) / Fold change /veh CDHR5 (11726645_a_at) / RFU RCAN1 (11760418_a_at) / Fold change /veh RCAN1 (11760418_a_at) / RFU FAM167A (11723789_a_at) / Fold change /veh FAM167A (11723789_a_at) / RFU FAM26E (11764081_at) / Fold change /veh FAM26E (11764081_at) / RFU ISYNA1 (11749810_s_at) / Fold change /veh ISYNA1 (11749810_s_at) / RFU ACY1 (11761880_at) / Fold change /veh ACY1 (11761880_at) / RFU 11764098_at / Fold change /veh 11764098_at / RFU SAMD14 (11745864_x_at) / Fold change /veh SAMD14 (11745864_x_at) / RFU NPB (11741838_a_at) / Fold change /veh NPB (11741838_a_at) / RFU TMPRSS6 (11731388_a_at) / Fold change /veh TMPRSS6 (11731388_a_at) / RFU KRTAP10-2 (11738614_at) / Fold change /veh KRTAP10-2 (11738614_at) / RFU ARHGAP8 /// PRR5-ARHGAP8 (11727945_x_at) / Fold change /veh ARHGAP8 /// PRR5-ARHGAP8 (11727945_x_at) / RFU KRTAP5-7 /// NADSYN1 (11734609_at) / Fold change /veh KRTAP5-7 /// NADSYN1 (11734609_at) / RFU RASL12 (11751679_a_at) / Fold change /veh RASL12 (11751679_a_at) / RFU CDKN2B (11736163_a_at) / Fold change /veh CDKN2B (11736163_a_at) / RFU PRF1 (11729649_at) / Fold change /veh PRF1 (11729649_at) / RFU, ZNF638 /// ZNF638-IT1 / Fold change vs veh, ZNF638 /// ZNF638-IT1 / RFU, PANK3 / Fold change vs veh, PANK3 / RFU, SH3YL1 / Fold change vs veh, SH3YL1 / RFU, ZEB2 / Fold change vs veh, ZEB2 / RFU, NRIP1 / Fold change vs veh, NRIP1 / RFU, PTTG1IP / Fold change vs veh, PTTG1IP / RFU, CAPN2 / Fold change vs veh, CAPN2 / RFU, MED14 / Fold change vs veh, MED14 / RFU, SNORA58 / Fold change vs veh, SNORA58 / RFU, C1orf63 / Fold change vs veh, C1orf63 / RFU, LRRFIP1 / Fold change vs veh, LRRFIP1 / RFU, NDUFAF7 / Fold change vs veh, NDUFAF7 / RFU, SLC12A2 / Fold change vs veh, SLC12A2 / RFU, IBTK / Fold change vs veh, IBTK / RFU, ESF1 / Fold change vs veh, ESF1 / Fold change vs veh, TMEM50B / RFU, TAOK1 / Fold change vs veh, TAOK1 / RFU, ACBD3 / Fold change vs veh, ACBD3 / RFU, TMA16 / Fold change vs veh, TMA16 / RFU, RWDD3 / Fold change vs veh, RWDD3 / RFU, BCAT1 / Fold change vs veh, BCAT1 / RFU, EDEM3 / Fold change vs veh, EDEM3 / RFU, TMEM33 / Fold change vs veh, TMEM33 / RFU, WDR75 / Fold change vs veh, WDR75 / RFU, AHCTF1 / Fold change vs veh, AHCTF1 / RFU, TFRC / Fold change vs veh, TFRC / RFU, ZDHHC17 / Fold change vs veh, ZDHHC17 / RFU, NOM1 / Fold change vs veh, NOM1 / RFU, ARL8B / Fold change vs veh, ARL8B / RFU, ZBTB11 / Fold change vs veh, ZBTB11 / RFU, TAMM41 / Fold change vs veh, TAMM41 / RFU, KIAA1704 /// LOC100996395 / Fold change vs veh, KIAA1704 /// LOC100996395 / RFU, ING1 / Fold change vs veh, ING1 / RFU, TRMT61B / Fold change vs veh, TRMT61B / RFU, FUBP3 / Fold change vs veh, FUBP3 / RFU, TP53 / Fold change vs veh, TP53 / RFU, TNKS2 / Fold change vs veh, TNKS2 / RFU, ZFP14 / Fold change vs veh, ZFP14 / RFU, ACTR2 / Fold change vs veh, ACTR2 / RFU, PPP3R1 / Fold change vs veh, PPP3R1 / RFU, PIK3R1 / Fold change vs veh, PIK3R1 / RFU, HNRNPA1 / Fold change vs veh, HNRNPA1 / RFU, RNF170 / Fold change vs veh, RNF170 / RFU, ZNF28 / Fold change vs veh, ZNF28 / RFU, RNGTT / Fold change vs veh, RNGTT / RFU, OGT / Fold change vs veh, OGT / RFU, BRD1 / Fold change vs veh, BRD1 / RFU, MARS / Fold change vs veh, MARS / RFU, ZNF655 / Fold change vs veh, ZNF655 / RFU, FAHD1 / Fold change vs veh, FAHD1 / RFU, BDP1 / Fold change vs veh, BDP1 / RFU, LRRCC1 / Fold change vs veh, LRRCC1 / RFU, ARID1A / Fold change vs veh, ARID1A / RFU, ZNF146 / Fold change vs veh, ZNF146 / RFU, ZNF330 / Fold change vs veh, ZNF330 / RFU, GPN3 / Fold change vs veh, GPN3 / RFU, C9orf123 / Fold change vs veh, C9orf123 / RFU, N4BP2L2 / Fold change vs veh, N4BP2L2 / RFU, ARFIP1 / Fold change vs veh, ARFIP1 / RFU, FAM179B / Fold change vs veh, FAM179B / RFU, BCL10 / Fold change vs veh, BCL10 / RFU, UHRF1BP1L / Fold change vs veh, UHRF1BP1L / RFU, BET1 / Fold change vs veh, BET1 / RFU, CNOT2 / Fold change vs veh, CNOT2 / RFU, ZNF268 / Fold change vs veh, ZNF268 / Fold change vs veh, ZNF507 / RFU, DGCR2 / Fold change vs veh, DGCR2 / RFU, WDSUB1 / Fold change vs veh, WDSUB1 / Fold change vs veh, HSP90B1 /// MIR3652 / RFU, ADSS / Fold change vs veh, ADSS / RFU, GK / Fold change vs veh, GK / RFU, ZNF148 / Fold change vs veh, ZNF148 / RFU, TAF9 / Fold change vs veh, TAF9 / RFU, SLC1A5 / Fold change vs veh, SLC1A5 / RFU, SLMO2 / Fold change vs veh, SLMO2 / RFU, ABCC4 / Fold change vs veh, ABCC4 / RFU, LOC101060439 /// RAP1B / Fold change vs veh, LOC101060439 /// RAP1B / RFU, RFX7 / Fold change vs veh, RFX7 / RFU, GTPBP10 / Fold change vs veh, GTPBP10 / RFU, CNEP1R1 / Fold change vs veh, CNEP1R1 / RFU, BIVM-ERCC5 /// ERCC5 / Fold change vs veh, BIVM-ERCC5 /// ERCC5 / RFU, ILF3 / Fold change vs veh, ILF3 / RFU 11762660_at / Fold change /veh 11762660_at / RFU VCAN (11757783_s_at) / Fold change /veh VCAN (11757783_s_at) / RFU DDX43 (11728927_at) / Fold change /veh DDX43 (11728927_at) / RFU KRT8 (11758188_x_at) / Fold change /veh KRT8 (11758188_x_at) / RFU NKD1 (11759106_at) / Fold change /veh NKD1 (11759106_at) / RFU SRD5A1 (11742802_a_at) / Fold change /veh SRD5A1 (11742802_a_at) / RFU TPSAB1 /// TPSB2 (11721975_s_at) / Fold change /veh TPSAB1 /// TPSB2 (11721975_s_at) / RFU GSTM3 (11746129_a_at) / Fold change /veh GSTM3 (11746129_a_at) / RFU IL23R (11737362_x_at) / Fold change /veh IL23R (11737362_x_at) / RFU TMEM51 (11727254_a_at) / Fold change /veh TMEM51 (11727254_a_at) / RFU PIWIL2 (11732686_x_at) / Fold change /veh PIWIL2 (11732686_x_at) / RFU ORM1 (11744905_x_at) / Fold change /veh ORM1 (11744905_x_at) / RFU CCDC152 (11743942_at) / Fold change /veh CCDC152 (11743942_at) / RFU ECM1 (11717891_a_at) / Fold change /veh ECM1 (11717891_a_at) / RFU IL23R (11748794_a_at) / Fold change /veh IL23R (11748794_a_at) / RFU TNFAIP8L3 (11732012_x_at) / Fold change /veh TNFAIP8L3 (11732012_x_at) / RFU MBOAT4 (11741988_at) / Fold change /veh MBOAT4 (11741988_at) / RFU 11764193_at / Fold change /veh 11764193_at / RFU TMEM53 (11763286_at) / Fold change /veh TMEM53 (11763286_at) / RFU MAGEB2 (11727129_at) / Fold change /veh MAGEB2 (11727129_at) / RFU TMEM200A (11744735_a_at) / Fold change /veh TMEM200A (11744735_a_at) / RFU CCDC152 (11751479_a_at) / Fold change /veh CCDC152 (11751479_a_at) / RFU FAM211A (11726209_a_at) / Fold change /veh FAM211A (11726209_a_at) / RFU RGS16 (11746705_a_at) / Fold change /veh RGS16 (11746705_a_at) / RFU VCAN (11755009_s_at) / Fold change /veh VCAN (11755009_s_at) / RFU RHOB (11743442_s_at) / Fold change /veh RHOB (11743442_s_at) / RFU RGS16 (11720943_a_at) / Fold change /veh RGS16 (11720943_a_at) / RFU RGS16 (11720944_at) / Fold change /veh RGS16 (11720944_at) / RFU, VPS4B / Fold change vs veh, VPS4B / RFU, CREB1 / Fold change vs veh, CREB1 / RFU, DNAJC13 / Fold change vs veh, DNAJC13 / RFU, GNAQ / Fold change vs veh, GNAQ / RFU, CDK5R1 / Fold change vs veh, CDK5R1 / RFU, ZRANB3 / Fold change vs veh, ZRANB3 / RFU, CUL4A / Fold change vs veh, CUL4A / RFU, CCNY / Fold change vs veh, CCNY / RFU, UFL1 / Fold change vs veh, UFL1 / RFU, COG3 / Fold change vs veh, COG3 / RFU, DIAPH2 / Fold change vs veh, DIAPH2 / RFU, SKA2 / Fold change vs veh, SKA2 / RFU, AFF3 / Fold change vs veh, AFF3 / RFU, LMF1 / Fold change vs veh, LMF1 / RFU, IPO11 / Fold change vs veh, IPO11 / RFU, DFFB / Fold change vs veh, DFFB / RFU, FOXP1 / Fold change vs veh, FOXP1 / RFU, CARD8 / Fold change vs veh, CARD8 / RFU, STRN3 / Fold change vs veh, STRN3 / RFU, ADK / Fold change vs veh, ADK / RFU, RASSF2 / Fold change vs veh, RASSF2 / RFU, WIPF1 / Fold change vs veh, WIPF1 / RFU, LARP1B / Fold change vs veh, LARP1B / RFU, RASA1 / Fold change vs veh, RASA1 / RFU, RB1 / Fold change vs veh, RB1 / RFU, PPFIA1 / Fold change vs veh, PPFIA1 / RFU, MAT2A / Fold change vs veh, MAT2A / RFU, CCT5 / Fold change vs veh, CCT5 / RFU, WDR92 / Fold change vs veh, WDR92 / RFU, CUX1 / Fold change vs veh, CUX1 / RFU, TTC7A / Fold change vs veh, TTC7A / RFU, TMEM135 / Fold change vs veh, TMEM135 / RFU, DEPTOR / Fold change vs veh, DEPTOR / RFU, CPM / Fold change vs veh, CPM / RFU, DNAJB6 / Fold change vs veh, DNAJB6 / RFU, CACNA2D3 / Fold change vs veh, CACNA2D3 / RFU, DTX4 / Fold change vs veh, DTX4 / RFU, TFCP2 / Fold change vs veh, TFCP2 / RFU, GMCL1 /// GMCL1P1 / Fold change vs veh, GMCL1 /// GMCL1P1 / RFU, AEBP2 / Fold change vs veh, AEBP2 / RFU, SNHG1 /// SNORD22 /// SNORD25 /// SNORD26 /// SNORD27 /// SNORD28 /// SNORD29 /// SNORD31 / Fold change vs veh, SNHG1 /// SNORD22 /// SNORD25 /// SNORD26 /// SNORD27 /// SNORD28 /// SNORD29 /// SNORD31 / Fold change (Aza/veh), C12orf56 (ProbeSet 11735607_a_at) / Fold change (ACY-1035/veh), C12orf56 (ProbeSet 11735607_a_at) / Fold change (Aza/veh), FGFR1OP (ProbeSet 11751329_s_at) / Fold change (ACY-1035/veh), FGFR1OP (ProbeSet 11751329_s_at) / Fold change (Aza/veh), VPS36 (ProbeSet 11739960_a_at) / Fold change (ACY-1035/veh), VPS36 (ProbeSet 11739960_a_at) / RFU SYPL1 (11715823_x_at) / Fold change /veh SYPL1 (11715823_x_at) / RFU IGFBP7 (11715501_s_at) / Fold change /veh IGFBP7 (11715501_s_at) / RFU REEP3 (11722064_at) / Fold change /veh REEP3 (11722064_at) / RFU IGLL1 (11728026_x_at) / Fold change /veh IGLL1 (11728026_x_at): dose or concentration left out as unconfirmed", "settings": "MV-4-11 cells, 48 hours"}
{"smiles": "Nc1ncn([C@@H]2O[C@H](CO)[C@@H](O)[C@H]2O)c(=O)n1", "note": "[azacitidine]", "values": [{"measurement": "RFU SPINT1 (11716480_a_at)", "value": 23.10, "unit": "RFU"}]}
